Assays:
AILNCaP14 cell line = assay: Cell proliferation suppression test (crystal violet staining); type: cell-based
Protocol: (§1) 5×10^3 cells of the LNCaP cell line, 4×10^4 cells of the AILNCaP14 cell line, and 6×10^4 cells of the AILNCaP15 cell line were each seeded on a 24-well plate to which 1 mL/well of medium was dispensed. […] After culturing each cell line for an additional two weeks, the status of cell proliferation was measured by cell staining (Bommi-Reddy et al. Proc Natl Acad Sci USA. 105: 16484-16489 (2008)) using crystal violet.
(§2) The final concentrations of alvocidib were set to be 0.125, 0.25, 0.5, and 1.0 uM.

AILNCaP15 cell line = assay: as above; type: cell-based
Protocol: as §1, §2

[1] = tested on: AILNCaP14 cell derived subcutaneous xenograft; assay: Tumor proliferation suppression test using a subcutaneous xenograft mouse model; type: in vivo; settings: castrated NOD-SCID mice; 3 mg/kg intraperitoneally, three times every two days; vs saline negative control; p value=0.0497
Protocol: 2×10^6 […] 14 cells were subjected to suspension culture for 4 days using a PrimeSurface® petri dish 90 mm (product code: MS-9090X) in a phenol red free RPMI 1640 medium containing activated carbon-treated 10% fetal bovine serum (csFBS). The cultured cells that were collected, mixed with 350 uL of Matrigel (Corning® Matrigel® Basement Membrane Matrix; catalog number: 356237), and then divided into 3 equal portions were transplanted subcutaneously into three sites on NOD-SCID mice (male, 8 mice, 6 to 8 weeks old) 7 days after castration. […] The tumor volume after three days (day 7) from the third administration was measured, and the ratio of increase in tumor volume was computed in accordance with the following equation. Ratio of increase in tumor volume=tumor volume on day 7/tumor volume on day 0 As a negative control group, the same test was conducted using saline in place of an agent administered solution, and the ratio of increase in tumor volume was computed.

[2] = tested on: AR nuclear translocation in AILNCaP14 cell line; assay: AR nuclear translocation suppression test using immunofluorescent staining; type: cell-based; settings: 0.25 μM, 4 days, vs DMSO control
Protocol: 1×10^5 cells of the […]14 cell line were seeded on a 48-well plate to which 0.5 mL/well of medium was dispensed. After 3 days of culture under the conditions of 5% CO2 at 37° C., a DMSO solution of alvocidib was diluted with a medium so that the final concentration of alvocidib would be 0.25 μM and added to each well (final volume of 1.0 mL). As a control, alvocidib-free DMSO was similarly diluted and added. After culturing for 4 days, the cells were gently washed once with PBS, and immobilized by allowing 4% paraformaldehyde phosphate buffer to act on the cells for 15 minutes. After washing the cells gently twice with PBS, the cells were incubated for 15 minutes in a 4% PBST solution. The cells were further incubated for 15 minutes in a blocking reagent (DS Pharma Biomedical, Cat no. UK-B80), and the cells were then incubated overnight at 4° C. after adding an anti-AR antibody (Santa Cruz Biotechnology Inc., Cat no. sc-816). After washing the cells gently twice with PBS, the cells were incubated for 45 minutes at room temperature after adding a secondary antibody for immunofluorescent staining (Thermo Fisher Scientific, Cat no A-21206). After washing the cells gently twice with PBS, the cells were incubated for 10 minutes after adding DAPI (Nacalai tesque, Cat no. 11034-56). After washing the cells twice for 10 minutes with 1% PBS, signals were measured with a fluorescence microscope.

[3] = Body weight in the xenograft mouse test; type: in vivo; settings: NOD-SCID mice; 3 mg/kg intraperitoneally, three times every two days
Protocol: 2×10^6 […]14 cells were subjected to suspension culture for 4 days using a PrimeSurface® petri dish 90 mm (product code: MS-9090X) in a phenol red free RPMI 1640 medium containing activated carbon-treated 10% fetal bovine serum (csFBS). The cultured cells that were collected, mixed with 350 uL of Matrigel (Corning® Matrigel® Basement Membrane Matrix; catalog number: 356237), and then divided into 3 equal portions were transplanted subcutaneously into three sites on NOD-SCID mice (male, 8 mice, 6 to 8 weeks old) 7 days after castration. After the subcutaneous transplantation, the mice were continuously raised, and an aqueous saline solution of alvocidib hydrochloride (3 mg/kg) was administered intraperitoneally to the mice for a total of three times at an interval of once every two days from the point (day 0) where the volume of tumor formed subcutaneously reached 25 mm^3 or greater and 100 mm^3 or less at one or two of the tumor transplantation sites.

[4] = tested on: androgen receptor (AR) phosphorylation in AILNCaP15 cell line; assay: AR phosphorylation suppression test by immunoblotting; type: cell-based; settings: 0.25 uM, 1 to 4 days
Protocol: (§3) After the culturing, each of 1×10^6 cells were washed with ice cooled PBS, and then treated with cell lysis buffer containing 8 M of urea, 20 mM of Tris hydrochloride (pH 7.4), 1 mM of EDTA, and protease inhibitor (Nacalai tesque, Cat no. 03969) and phosphatase inhibitor (Nacalai tesque, Cat no. 07575-51)—added 1.0% Triton X. The cell lysate was then subjected to high speed centrifugation (21,500 G) for 20 minutes at 4° C. The total amount of cell protein was quantified using a protein quantification reagent (Thermo Fisher Scientific, Cat no. 23227).

[5] = tested on: androgen receptor (AR) phosphorylation in AILNCaP14 cell line; assay: as above; type: cell-based; settings: 0.25 uM, 1 to 4 days
Protocol: as §3
As a positive control, JQ1 (Cayman Chemical) was used.

LNCaP cell line = assay: Cell proliferation suppression test (crystal violet staining); type: cell-based; settings: final concentration of 0.625 uM or greater, two weeks culture
Protocol: as §1

[6] = 336 h, two weeks culture, crystal violet
[7] = final concentration of 0.25 uM or greater
[8] = final concentration of 5 uM, compared to LNCaP cell line

SMILES	IC50 (AILNCaP14 cell line; [6]) [nM]	effect of suppressing cell proliferation (AILNCaP14 cell line; [7])	IC50 (AILNCaP15 cell line; [6]) [nM]	effect of suppressing cell proliferation (AILNCaP15 cell line; [7])	ratio of increase in tumor volume (day 7/day 0) [1]	AR nuclear translocation [2]	decrease in the body weight of mice [3]	phosphorylation of serine 81 of AR [4]	phosphorylation of serine 210 or serine 213 of AR [4]	phosphorylation of serine 81 of AR [5]	phosphorylation of serine 210 or serine 213 of AR [5]	suppression of cell proliferation (AILNCaP14 cell line; [8])	suppression of cell proliferation (AILNCaP15 cell line; [8])	suppression of cell proliferation (LNCaP cell line)
CN1CC[C@H](c2c(O)cc(O)c3c(=O)cc(-c4ccccc4Cl)oc23)[C@H](O)C1 [alvocidib, 2-(2-chlorophenyl)-5,7-dihydroxy-8-[(3S,4R)-3-hydroxy-1-methylpiperidin-4-yl]-4H-1-benzopyran-4-one]	125 to 250	very potent effect of suppressing cell proliferation	125 to 250	very potent effect of suppressing cell proliferation	decreased	suppressed	not observed	suppressed over time	suppressed over time	suppressed over time	suppressed over time	–	–	–
CNC(=O)c1ccc(N2C(=S)N(c3ccc(C#N)c(C(F)(F)F)c3)C(=O)C2(C)C)cc1F [enzalutamide]	–	–	–	–	–	–	–	–	–	–	–	significant weaker suppression of cell proliferation	significant weaker suppression of cell proliferation	clear suppression of cell proliferation
